32 molecules from patent publication US9133206B2, “Benzodiazepine and pyridodiazepine derivatives” (AbbVie Inc., priority 2010, dated 2015) can be followed below.

The subject of the experiment is SK-N-SH human neuroblastoma cells. The experiment is described as follows: Serum Deprivation/JC-1 Mitochondrial Membrane Potential (MMP) Assay. The class given is cell-based. The settings on record: Homo sapiens; for activation at 3 µM: single dose 3 μM, JC-1 ratio normalized to peak value for 10 μM dimebolin (n=2-4), read-out: JC-1 max % (@ 3 μM); for activation at 3 µM / Emax: serum deprivation; for EC50 / Emax: SK-N-SH; for EC50: 18 h, serum deprivation ~18 hours, JC-1 ratio normalized to peak value for 10 μM dimebolin, single curve fit to mean data of n=2-3; for Emax: percent maximal intensity in JC-1 ratio normalized to peak value for 10 μM dimebolin, read-out: JC-1 max %. Summed up: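 SK-N-SH cells serum-deprived ~18 h with compound, then stained with JC-1 for 40 min at 37 °C; red (560/595 nm) to green (485/535 nm) ratio reports membrane potential. Response normalized to peak from 10 μM dimebolin; EC50 from fit to mean of n=2–3, or single-dose 3 μM; DMSO ≤1%.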

Structures are written as SMILES.

In the case of `O=C1C2CNCCN2c2ccccc2CN1CC1CC1` (centres unmarked) [Example 172, 6-(cyclopropylmethyl)-2,3,4,4a,6,7-hexahydropyrazino[1,2-a][1,4]benzodiazepin-5(1H)-one], the activation at 3 µM worked out at 0%. Usually EC50 stands for the midpoint of the concentration-response curve. As to `CC(=O)N1CCN2c3ccccc3CN(C(=O)N3CCOCC3)CC2C1` (centres unmarked) [Example 83, 1-[6-(morpholin-4-ylcarbonyl)-1,2,4a,5,6,7-hexahydropyrazino[1,2-a][1,4]benzodiazepin-3(4H)-yl]ethanone], the 50% effective concentration (EC50) was over 31.6 µM and the Emax turned out to be 34%. Consider `CN1CCN(CC(=O)N2Cc3ccccc3N3CCN(Cc4ccccc4)CC3C2)CC1` (centres unmarked) [Example 103, 1-(3-benzyl-1,2,3,4,4a,5-hexahydropyrazino[1,2-a][1,4]benzodiazepin-6(7H)-yl)-2-(4-methylpiperazin-1-yl)ethanone], for which the activation at 3 µM was determined as 42%. The same measure, in the same setting: to `CN1CCN2c3ccccc3CN(C(=O)c3ccc(Cl)cc3)CC2C1` (centres unmarked) [Example 176, (4-chlorophenyl)(3-methyl-1,2,3,4,4a,5-hexahydropyrazino[1,2-a][1,4]benzodiazepin-6(7H)-yl)methanone] belongs 40%.

Turning to `O=C(c1cnccn1)N1Cc2ccccc2N2CCN(Cc3ccccc3)CC2C1` (centres unmarked) [Example 12, (3-benzyl-1,2,3,4,4a,5-hexahydropyrazino[1,2-a][1,4]benzodiazepin-6(7H)-yl)(pyrazin-2-yl)methanone], the EC50 is 1.11 µM and the Emax was 198%. In the same order, the values of `c1ccc(CN2CCN3c4ccccc4CN(Cc4ccccn4)CC3C2)cc1` (centres unmarked) [Example 29, 3-benzyl-6-(pyridin-2-ylmethyl)-1,2,3,4,4a,5,6,7-octahydropyrazino[1,2-a][1,4]benzodiazepine] are 4.87 µM and 221%. For the molecule `O=C1CC2CN(Cc3ccccc3)CCN2c2ncccc2N1` (centres unmarked) [Example 51, 9-benzyl-7,7a,8,9,10,11-hexahydropyrazino[1,2-d]pyrido[3,2-b][1,4]diazepin-6(5H)-one], the half-maximal effective concentration (EC50) turned out to be 8.83 µM and the Emax amounted to 68%. For `COc1ccc(CN2Cc3ccccc3N3CCN(Cc4ccccc4)CC3C2)cc1` (centres unmarked) [Example 134, 3-benzyl-6-(4-methoxybenzyl)-1,2,3,4,4a,5,6,7-octahydropyrazino[1,2-a][1,4]benzodiazepine] the same measures were 3.53 µM and 163%.

For `c1ccc(CN2CCN3c4ccccc4CN(c4cnccn4)CC3C2)cc1` (centres unmarked) [Example 11, 3-benzyl-6-(pyrazin-2-yl)-1,2,3,4,4a,5,6,7-octahydropyrazino[1,2-a][1,4]benzodiazepine], the EC50 was 5.61 µM and the Emax turned out to be 122%. As to `c1ccc(CN2CCN3c4ccccc4CN(Cc4cccs4)CC3C2)cc1` (centres unmarked) [Example 147, 3-benzyl-6-(2-thienylmethyl)-1,2,3,4,4a,5,6,7-octahydropyrazino[1,2-a][1,4]benzodiazepine], the activation at 3 µM was found to be 1.7%.

For the molecule `O=C(c1cccnc1)N1Cc2ccccc2N2CCN(Cc3ccccc3)CC2C1` (centres unmarked) [Example 110, (3-benzyl-1,2,3,4,4a,5-hexahydropyrazino[1,2-a][1,4]benzodiazepin-6(7H)-yl)(pyridin-3-yl)methanone], the activation at 3 µM amounted to 97%.

For the molecule `O=C(NCCc1ccncc1)N1Cc2ccccc2N2CCN(Cc3ccccc3)CC2C1` (centres unmarked) [Example 152, 3-benzyl-N-[2-(pyridin-4-yl)ethyl]-1,2,3,4,4a,5-hexahydropyrazino[1,2-a][1,4]benzodiazepine-6(7H)-carboxamide], the EC50 was 3.08 µM and the Emax amounted to 239%. For `CN1CCN2c3ccccc3CN(Cc3ccc(Br)cc3)CC2C1` (centres unmarked) [Example 57, 6-(4-bromobenzyl)-3-methyl-1,2,3,4,4a,5,6,7-octahydropyrazino[1,2-a][1,4]benzodiazepine] the same measures were 10.2 µM and 167%. For `O=C(N1CCOCC1)N1Cc2ccccc2N2CCN(Cc3ccc(F)cc3)CC2C1` (centres unmarked) [Example 76, [3-(4-fluorobenzyl)-1,2,3,4,4a,5-hexahydropyrazino[1,2-a][1,4]benzodiazepin-6(7H)-yl](morpholin-4-yl)methanone] the same measures were 7.06 µM and 127%. In the same order, the values of `Fc1ccc(CN2CCN3c4ccccc4CN(Cc4ccc(Br)cc4)CC3C2)cc1` (centres unmarked) [Example 56, 6-(4-bromobenzyl)-3-(4-fluorobenzyl)-1,2,3,4,4a,5,6,7-octahydropyrazino[1,2-a][1,4]benzodiazepine] are 5.17 µM and 161%.

In the case of `O=C(C1CCC1)N1Cc2ccccc2N2CCN(Cc3ccccc3)CC2C1` (centres unmarked) [Example 115, (3-benzyl-1,2,3,4,4a,5-hexahydropyrazino[1,2-a][1,4]benzodiazepin-6(7H)-yl)(cyclobutyl)methanone], the EC50 came out at 1.25 µM and the Emax is 177%. With `c1ccc(CN2CCN3c4ccccc4CN(Cc4ccncc4)CC3C2)cc1` (centres unmarked) [Example 30, 3-benzyl-6-(pyridin-4-ylmethyl)-1,2,3,4,4a,5,6,7-octahydropyrazino[1,2-a][1,4]benzodiazepine], the 50% effective concentration (EC50) stood at 3.6 µM and the Emax is 216%. As to `Fc1ccc(CN2Cc3ccccc3N3CCN(Cc4ccccc4)CC3C2)cc1F` (centres unmarked) [Example 25, 3-benzyl-6-(3,4-difluorobenzyl)-1,2,3,4,4a,5,6,7-octahydropyrazino[1,2-a][1,4]benzodiazepine], the 50% effective concentration (EC50) was found to be 15.7 µM and the Emax was determined as 128%. For `O=C(NC1CCC1)N1Cc2ccccc2N2CCN(Cc3ccccc3)CC2C1` (centres unmarked) [Example 169, 3-benzyl-N-cyclobutyl-1,2,3,4,4a,5-hexahydropyrazino[1,2-a][1,4]benzodiazepine-6(7H)-carboxamide] the same measures were 0.816 µM and 173%. For `Cc1ccc(CN2Cc3ccccc3N3CCN(Cc4ccccc4)CC3C2)cc1` (centres unmarked) [Example 137, 3-benzyl-6-(4-methylbenzyl)-1,2,3,4,4a,5,6,7-octahydropyrazino[1,2-a][1,4]benzodiazepine] the same measures were 3.3 µM and 143%.

Turning to `O=C(/C=C/c1ccccc1)N1Cc2ccccc2N2CCN(Cc3ccccc3)CC2C1` (centres unmarked) [Example 20, (2E)-1-(3-benzyl-1,2,3,4,4a,5-hexahydropyrazino[1,2-a][1,4]benzodiazepin-6(7H)-yl)-3-phenylprop-2-en-1-one], the half-maximal effective concentration (EC50) was 5.47 µM and the Emax came out at 133%. In the same order, the values of `CC(C)(C)OC(=O)N1CCN2c3ccccc3CN(Cc3ccc(Br)cc3)CC2C1` (centres unmarked) [Example 66, tert-butyl 6-(4-bromobenzyl)-1,2,4a,5,6,7-hexahydropyrazino[1,2-a][1,4]benzodiazepine-3(4H)-carboxylate] are 4.84 µM and 192%.

As to `CN1CCC2CN(Cc3ccccc3)CCN2c2ccccc21` (centres unmarked) [Example 49, 3-benzyl-7-methyl-1,2,3,4,4a,5,6,7-octahydropyrazino[1,2-a][1,5]benzodiazepine], the EC50 was determined as 10.4 µM and the Emax worked out at 128%.

Turning to `Brc1ccccc1CN1Cc2ccccc2N2CCN(Cc3ccccc3)CC2C1` (centres unmarked) [Example 132, 3-benzyl-6-(2-bromobenzyl)-1,2,3,4,4a,5,6,7-octahydropyrazino[1,2-a][1,4]benzodiazepine], the concentration for a half-maximal effect (EC50) was 3.33 µM and the Emax is 192%.

Take `c1ccc(CN2CCN3c4ccccc4CN(Cc4cncc5ccccc45)CC3C2)cc1` (centres unmarked) [Example 37, 3-benzyl-6-(isoquinolin-4-ylmethyl)-1,2,3,4,4a,5,6,7-octahydropyrazino[1,2-a][1,4]benzodiazepine]: the EC50 stood at 1.21 µM and the Emax was 172%.

As to `O=C(c1ccc(Br)cc1)N1Cc2ccccc2N2CCN(Cc3ccccc3)CC2C1` (centres unmarked) [Example 31, (3-benzyl-1,2,3,4,4a,5-hexahydropyrazino[1,2-a][1,4]benzodiazepin-6(7H)-yl)(4-bromophenyl)methanone], the half-maximal effective concentration (EC50) came out at 1.97 µM and the Emax was 218%. Turning to `O=C(c1cscn1)N1Cc2ccccc2N2CCN(Cc3ccccc3)CC2C1` (centres unmarked) [Example 88, (3-benzyl-1,2,3,4,4a,5-hexahydropyrazino[1,2-a][1,4]benzodiazepin-6(7H)-yl)(1,3-thiazol-4-yl)methanone], the activation at 3 µM was 139%. On to `Clc1cccc(CN2Cc3ccccc3N3CCN(Cc4ccccc4)CC3C2)c1` (centres unmarked) [Example 140, 3-benzyl-6-(3-chlorobenzyl)-1,2,3,4,4a,5,6,7-octahydropyrazino[1,2-a][1,4]benzodiazepine], for which the concentration giving a half-maximal response (EC50) was 3.6 µM and the Emax worked out at 189%. For the molecule `CC(C)CNC(=O)N1Cc2ccccc2N2CCN(Cc3ccccc3)CC2C1` (centres unmarked) [Example 162, 3-benzyl-N-isobutyl-1,2,3,4,4a,5-hexahydropyrazino[1,2-a][1,4]benzodiazepine-6(7H)-carboxamide], the activation at 3 µM amounted to 194%. Take `Cc1ccc(CN2Cc3ccccc3N3CCN(Cc4ccccc4)CC3C2)cn1` (centres unmarked) [Example 32, 3-benzyl-6-[(6-methylpyridin-3-yl)methyl]-1,2,3,4,4a,5,6,7-octahydropyrazino[1,2-a][1,4]benzodiazepine]: the 50% effective concentration (EC50) turned out to be 1.98 µM and the Emax came out at 140%. For the molecule `O=C(c1ccncc1)N1CCC2CN(Cc3ccccc3)CCN2c2ccccc21` (centres unmarked) [Example 43, (3-benzyl-2,3,4,4a,5,6-hexahydropyrazino[1,2-a][1,5]benzodiazepin-7(1H)-yl)(pyridin-4-yl)methanone], the EC50 was determined as 6.76 µM and the Emax stood at 115%. Regarding `O=C(c1cn[nH]c1)N1Cc2ccccc2N2CCN(Cc3ccccc3)CC2C1` (centres unmarked) [Example 85, (3-benzyl-1,2,3,4,4a,5-hexahydropyrazino[1,2-a][1,4]benzodiazepin-6(7H)-yl)(1H-pyrazol-4-yl)methanone], the activation at 3 µM amounted to 80%.
